Literature values as cited in patent US20140162261A1, “DETECTION KIT FOR IDENTIFYING GENOTYPE IN DEPRESSION PATIENTS AND METHOD OF USING THE SAME” (priority 2012, published 2014).

Experiments:
[1] = oral administration
[2] = system: cholinergic receptors
[3] = system: depression patients; conditions: SSRIs in combination with low-dose risperidone (0.5-1 mg/day), in 1-2 days
[4] = target: T1, striatal dopamine D2 receptors (Homo sapiens, UniProt P14416); conditions: 4 mg dose
T1 construct: host or cells: striatum (in vivo)

[5] = system: α2-adrenergic receptors

T1 sequence (P14416 whole entry): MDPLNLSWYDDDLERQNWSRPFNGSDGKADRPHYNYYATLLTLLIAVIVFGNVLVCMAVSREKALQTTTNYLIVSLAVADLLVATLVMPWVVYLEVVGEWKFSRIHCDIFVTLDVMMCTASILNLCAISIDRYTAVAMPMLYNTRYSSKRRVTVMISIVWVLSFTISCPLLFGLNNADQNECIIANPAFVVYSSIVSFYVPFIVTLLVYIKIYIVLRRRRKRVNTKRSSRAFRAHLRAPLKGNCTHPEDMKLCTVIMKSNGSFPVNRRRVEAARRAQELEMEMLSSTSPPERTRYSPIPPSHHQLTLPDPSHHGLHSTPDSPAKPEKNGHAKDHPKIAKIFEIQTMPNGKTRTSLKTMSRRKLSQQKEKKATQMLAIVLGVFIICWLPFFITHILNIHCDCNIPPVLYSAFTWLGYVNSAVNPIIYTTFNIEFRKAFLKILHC

SMILES: Cc1nc2n(c(=O)c1CCN1CCC(c3noc4cc(F)ccc34)CC1)CCCC2 [Risperidone]
- effect of food on digestion (absorption) [1]: not affected by food
- binding with cholinergic receptors [2]: does not bind
- improvement of patients' symptoms [3]: significantly improve most of the patient's symptoms
- blockade of striatal dopamine D2 receptors [4]: 70-80%
- affinity for α2-adrenergic receptors [5]: low affinity
